In patent US20040147606A1, “Medicinal compositions” (priority 2001, published 2004):

Experiments:
goblet cells = experiment: Test for confirming synergetic expectorant effect: number of goblet cells in the air tube after intratracheal LPS; assay type: in vivo, Fischer (F334) rats; conditions: for Number of goblet cells: counted three days after LPS; for expectorant effect (number of goblet cells), result in words: summary of Table 1
Text: Improvement of the expectorant effect by using fudosteine and an antipyretic/analgesic in combination was confirmed by the method described below. Seven 12-week-old male Fischer ([…]) rats for one group were used as test animals. The rats were anesthetized with pentobarbital and their skin was disinfected using the Isodine solution for surgery. The trachea of the rats was exposed by midline incision. The injection needle ([…], Hamilton) attached to a Hamilton injection syringe was inserted from the pharynx to inject lipopolysaccharide (LPS, 10 μg/500 μl) into the air tube. The samples of which the components and dose are shown in Table 1 were dissolved or suspended in a 0.5% CMC-Na solution. The solution or suspension was orally administered to the rats three times in total, specifically, 30 minutes before administering LPS, 24 hours after administering LPS, and 48 hours after administering LPS. Three days after administering LPS, the rats were bled to death by cutting the abdominal aorta under pentobarbital anesthesia. A part of the air tube and bronchial tube was removed and fixed with a 10% neutral buffered formalin solution. The fixed bronchial tube was embedded in paraffin according to a conventional method. The air tube was cut into slices in the cross-section. The slices were stained with alcian blue/PAS (AB/PAS). The AB/PAS stained samples of each air tube were microscopically examined to measure the number of goblet cells according to the reported procedure (Enviromn. Tixicol. Pharmacol., vol. 5, p. 173, 1998).

Wistar rats = experiment: Test for confirming synergetic antiinflammatory effect: carrageenan footpad edema; assay type: in vivo; conditions: for Edema ratio (%): four hours after carrageenan; for antiinflammatory effect, result in words: summary of Table 2
Protocol: Improvement on the antiinflammatory effect by using fudosteine and an antipyretic/analgesic in combination was confirmed by the method described below. Five five-week-old male Wistar rats for one group were used as test animals. The samples of which the components and dose are shown in Table 2 were dissolved or suspended in a 0.5% CMC-Na solution. The solution or suspension was orally administered to the rats once a day in five consecutive days. Two hours after the administration on the last administration day, 0.1 ml of an inflammatory (carrageenan) was hypodermically injected into the right hind footpad of the rats. The limb volume of the rats was measured four hours after injecting the inflammatory. The edema ratio was calculated based on the limb volume before injecting the inflammatory. The rats were coated with a licking prevention hood, followed by measuring the right hind limb volume using a plethysmometer (manufactured by Ugo Basile).

[1] = 100 mg/kg orally once a day for five days

Compound | Number of goblet cells (goblet cells; 100 mg/kg orally, three times) | Number of goblet cells (goblet cells; 200 mg/kg orally, three times) | expectorant effect (number of goblet cells), result in words (goblet cells) | Edema ratio (%) (Wistar rats; [1]) | Edema ratio (%) (Wistar rats; 200 mg/kg orally once a day for five days) | antiinflammatory effect, result in words (Wistar rats) | Number of goblet cells (goblet cells; 30 mg/kg orally, three times (30 min before, 24 h and 48 h after LPS)) | Number of goblet cells (goblet cells; 50 mg/kg orally, three times) | Edema ratio (%) (Wistar rats; 50 mg/kg orally once a day for five days)
CC(=O)Nc1ccc(O)cc1 [Acetaminophen, acetaminophen] | 125.7 ± 2.4 | 122.9 ± 1.7 | did not exhibit an expectorant effect | 70.6 ± 0.68 % | 60.6 ± 0.88 ^b) % | dose-dependent antiinflammatory effect |  |  | 
N[C@@H](CSCCCO)C(=O)O [Fudosteine, S-(3-hydroxypropyl)-L-cysteine] |  |  | exhibited an expectorant effect |  |  |  | 75.7 ± 1.3 |  | 
CC(C)Cc1ccc(C(C)C(=O)O)cc1 (centres unmarked) [Ibuprofen, ibuprofen] | 124.3 ± 2.0 |  | did not exhibit an expectorant effect | 60.6 ± 0.79 ^a) % |  | dose-dependent antiinflammatory effect |  | 124.9 ± 1.8 | 70.6 ± 0.89 %
